For experiment [1], the target named is Diamine oxidase (Sus scrofa). Put plainly: Tested for ability to competitively inhibit hog kidney diamine oxidase (DAO) in a spectrometric assay.
Experiment [2] deals with Diamine oxidase (Sus scrofa). The experiment is described as above. This is another data set of the same source.

Structures are written as SMILES.

As usually defined, the Ki is the dissociation constant of the complex between target and ligand, obtained from inhibition or displacement. Consider `NCC=Cc1cnc[nH]1`, for which the results for the Ki in experiment [1] and in experiment [2] were 170 nM and 200 nM, respectively. Turning to `C=C(CN)c1cnc[nH]1` [2-(1H-Imidazol-4-yl)-allylamine], affinity in experiment [1] was put at a Ki of 7100 nM. In other words, the single-digit micromolar range.

In experiment [1], `NCC#Cc1cnc[nH]1` [3-(1H-Imidazol-4-yl)-prop-2-ynylamine] showed a Ki of 1700 nM. This Ki is about 4.2-fold lower than that of the molecule before.

Source of the values: BindingDB's records for doi:10.1016/S0960-894X(01)80909-4 (1993).
